The results in this text go back to US20240207291A1, “METHODS FOR TREATING POXVIRUS INFECTIONS” (priority 2022, published 2024).

Data set [1] concerns vaccinia virus (modified vaccinia virus Ankara; MVA). Description: microbe, parasite or virus in culture. The data set is classed as cell-based.
Data set [2] is described as follows: in vitro. As to conditions: hamster.
Data set [3] relates to Vaccinia virus (MVA strain). The data set is classed as cell-based.
A short description of data set [4]: in vitro. To be noted: hamster, BHK-21 cells, no virus, 2 days.
[5] abbreviates: CC50, Average of Tests 1-2 (Table 1).
The mark [6] stands for this setting: CC50, Average, Tests 1-3 (Table 1A).
[7] abbreviates: CC50, Test 2, uninfected BHK-21 cells, 3 days.
Setting [8] is: CC50, Test 3, uninfected BHK-21 cells, 3 days.

Structures are written as SMILES. Values joined by “and” are separate entries in the source; they are usually repeats but may differ in a detail not shown here. Identical values can stand only once. Like-named read-outs stand apart in the source and are kept apart here.

For the compound `Nc1ccn(C[C@@H](CO)OCP(=O)(O)O)c(=O)n1` [Cidofovir], the EC50 in data set [1] was 2.6 µM and 7.2 µM; in data set [1] (Orthopoxvirus vaccinia), 4.9 µM. Further, the CC50 is over 100 µM in “in vitro [2]” (setting [5]); over 73 µM in the data set “in vitro [2]” (setting [6]); over 100 µM in “in vitro [2]” (CC50, Test 1, uninfected BHK-21 cells, 3 days); over 100 µM in “in vitro [2]” (setting [7]); 73 µM in the data set “in vitro [2]” (setting [8]).

As to `CCC(CC)COC(=O)[C@H](C)N[P@](=O)(OC[C@H]1O[C@@](C#N)(c2ccc3c(N)ncnn23)[C@H](O)[C@@H]1O)Oc1ccccc1` [Compound of Formula Ia, (S)-2-ethylbutyl 2-(((S)-(((2R,3S,4R,5R)-5-(4-aminopyrrolo[2,1-f][1,2,4]triazin-7-yl)-5-cyano-3,4-dihydroxytetrahydrofuran-2-yl)methoxy)(phenoxy)phosphoryl)amino)propanoate], the EC50 in data set [1] was 2.3 µM and 0.55 µM; in data set [1] (Orthopoxvirus vaccinia), 1.43 µM; in data set [3] (read-out: Average EC50 ± SD), 0.773 ± 0.131 µM; in data set [3] (read-out: EC50) it was 0.726 µM. Besides, the CC50 in the data set “in vitro [2]” (setting [5]) is 12.8 µM; in “in vitro [2]” (setting [6]), over 2.5 µM; in “in vitro [2]” (setting [7]) it was 2.5 µM; in the data set “in vitro [2]” (setting [8]), over 50 µM; in “in vitro [4]” (CC50, n=3) it was 26.1 µM; in “in vitro [4]” (CC50 ± SD, n=4), 28.8 ± 11.5 µM.
